Assay results: patent US12655116B2, “Substituted isophthalic acid diamides” (Bayer Aktiengesellschaft, priority 2020, dated 2026)

Assays:
PHBPU [1] = experiment: Pre-emergence herbicidal action against PHBPU; type: in vivo, Pharbitis purpurea; conditions: dosage 80 g/ha
Method in brief: (§1)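 Herbicidal effect was assessed 3 weeks after treatment by visual comparison with untreated controls, 100% denoting dead plants. Aqueous WP or EC preparations had been applied at 600 to 800 l/ha with 0.2% wetting agent to the soil covering freshly sown seeds.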

AMARE [2] = experiment: Pre-emergence herbicidal action against AMARE; type: in vivo, Amaranthus retroflexus
Method in brief: as §1

SETVI [3] = experiment: Pre-emergence herbicidal action against SETVI; type: in vivo, Setaria viridis; conditions: dosage 80 g/ha
Method in brief: as §1

ALOMY = experiment: Pre-emergence herbicidal action against ALOMY; type: in vivo, Alopecurus myosuroides; conditions: 80 g/ha, pre-emergence, scored visually after 3 weeks vs untreated controls (100% = plants have died, 0% = like control plants)
Method in brief: as §1

ECHCG [4] = experiment: Pre-emergence herbicidal action against ECHCG; type: in vivo, Echinochloa crus-galli; conditions: 80 g/ha
Method in brief: as §1

ECHCG [5] = experiment: Post-emergence herbicidal action against ECHCG; type: in vivo, Echinochloa crus-galli
Method in brief: (§2)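 Post-emergence greenhouse test; one-leaf stage, 2–3 wk post-sowing, sandy loam. Foliar spray of WP/EC in water, 600–800 l/ha, +0.2% wetting agent. Visual % action at ~3 wk vs untreated (100% = plants dead).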

POLCO = experiment: Pre-emergence herbicidal action against POLCO; type: in vivo, Polygonum convolvulus; conditions: dosage 80 g/ha
Method in brief: as §1

MATIN [6] = experiment: Pre-emergence herbicidal action against MATIN; type: in vivo, Matricaria inodora
Method in brief: as §1

ABUTH [7] = experiment: Pre-emergence herbicidal action against ABUTH; type: in vivo, Abutilon theophrasti
Method in brief: as §1

PHBPU [8] = experiment: Post-emergence herbicidal action against PHBPU; type: in vivo, Pharbitis purpurea; conditions: dosage 20 g/ha
Method in brief: as §2

DIGSA [9] = experiment: Pre-emergence herbicidal action against DIGSA; type: in vivo, Digitaria sanguinalis
Method in brief: as §1

VERPE = experiment: Pre-emergence herbicidal action against VERPE; type: in vivo, Veronica persica
Method in brief: as §1

VIOTR = experiment: Pre-emergence herbicidal action against VIOTR; type: in vivo, Viola tricolor
Method in brief: as §1

AMARE [10] = experiment: Post-emergence herbicidal action against AMARE; type: in vivo, Amaranthus retroflexus; conditions: 20 g/ha, visual assessment about 3 weeks after treatment, 100% = plants have died, 0% = like control plants
Method in brief: as §2

MATIN [11] = experiment: Post-emergence herbicidal action against MATIN; type: in vivo, Matricaria inodora; conditions: dosage 20 g/ha
Method in brief: as §2

SETVI [12] = experiment: Post-emergence herbicidal action against SETVI; type: in vivo, Setaria viridis; conditions: dosage 20 g/ha
Method in brief: as §2

DIGSA [13] = experiment: Post-emergence herbicidal action against DIGSA; type: in vivo, Digitaria sanguinalis; conditions: 20 g/ha
Method in brief: as §2

ABUTH [14] = experiment: Post-emergence herbicidal action against ABUTH; type: in vivo, Abutilon theophrasti; conditions: dosage 20 g/ha, visual assessment about 3 weeks after treatment vs untreated controls
Method in brief: as §2

[15] = 20 g/ha, scored visually after 3 weeks vs untreated controls, 100% = plants have died, 0% = like control plants
[16] = 80 g/ha, scored visually after 3 weeks vs untreated controls (100% = plants have died, 0% = like control plants)
[17] = dosage 20 g/ha, scored visually after 3 weeks vs untreated controls, 100% = plants have died, 0% = like control plants

Row | SMILES | Pre-emergence action against PHBPU in % (PHBPU [1]) | Pre-emergence action against AMARE in % (AMARE [2]; [15]) | Pre-emergence action against AMARE in % (AMARE [2]; [16]) | Pre-emergence action against SETVI in % (SETVI [3]) | Pre-emergence action against ALOMY (herbicidal activity) (ALOMY) | Pre-emergence action against ECHCG in % (ECHCG [4]) | Post-emergence action against ECHCG in % (ECHCG [5]; dosage 5 g/ha) | Post-emergence action against ECHCG in % (ECHCG [5]; dosage 20 g/ha) | Pre-emergence action against POLCO in % (POLCO) | Pre-emergence action against MATIN in % (MATIN [6]; dosage 20 g/ha) | Pre-emergence action against MATIN in % (MATIN [6]; dosage 80 g/ha) | Pre-emergence action against ABUTH (herbicidal activity) (ABUTH [7]; [16]) | Pre-emergence action against ABUTH (herbicidal activity in percent) (ABUTH [7]; [17]) | Pre-emergence action against DIGSA in % (DIGSA [9]; dosage 20 g/ha) | Pre-emergence action against DIGSA in % (DIGSA [9]; dosage 80 g/ha) | Pre-emergence action against VERPE in % (VERPE; dosage 80 g/ha) | Pre-emergence action against VIOTR in % (VIOTR; dosage 80 g/ha) | Post-emergence action at 20 g/ha against AMARE in % (AMARE [10]) | other results
1 | CCn1nnnc1NC(=O)c1ccc(C(F)(F)F)c(C(=O)NCCOC)c1Cl [Example 2-138] | 80% | 100% | 100% | 80% | 90% | 90% | 80% | 90% | 90% | 90% | 100% | 100% | 80% | 100% | 100% | 100% | 100% | 90% | Post-emergence action against PHBPU in % (PHBPU [8]): 80%; Pre-emergence action against VIOTR in % (VIOTR; dosage 20 g/ha): 90%
2 | CCn1nnnc1NC(=O)c1ccc(C(F)F)c(C(=O)NC2CCC2)c1Cl [Example 2-164] | 100% | 100% | 100% | 80% | – | 80% | – | 80% | 90% | 100% | 100% | 100% | 90% | – | 100% | 100% | 100% | 90% | Post-emergence action against MATIN in % (MATIN [11]): 80%
3 | Cn1nnnc1NC(=O)c1ccc(C(F)F)c(C(=O)Nc2ccccc2)c1Cl [Example 1-161] | – | – | – | – | – | – | – | – | – | – | – | – | – | – | – | – | – | – | pest or weed control at 80 g/ha (PHBPU [1]; Ipomoea purpurea, 504 h): 80%; pest or weed control at 20 g/ha (AMARE [2]; Amaranthus retroflexus, 504 h, 20 g/ha, scored visually after 3 weeks vs untreated controls, 100% = plants have died, 0% = like control plants): 100%; pest or weed control at 80 g/ha (AMARE [2]; Amaranthus retroflexus, 504 h, 80 g/ha, scored visually after 3 weeks vs untreated controls, 100% = plants have died, 0% = like control plants): 100%; pest or weed control at 80 g/ha (POLCO; Fallopia convolvulus, 504 h): 80%; pest or weed control at 20 g/ha (MATIN [6]; Tripleurospermum inodorum, 504 h, dosage 20 g/ha): 90%; pest or weed control at 80 g/ha (MATIN [6]; Tripleurospermum inodorum, 504 h, dosage 80 g/ha): 100%; pest or weed control at 80 g/ha (ABUTH [7]; Abutilon theophrasti, 504 h, 80 g/ha, scored visually after 3 weeks vs untreated controls (100% = plants have died, 0% = like control plants)): 90%; pest or weed control at 20 g/ha (ABUTH [7]; Abutilon theophrasti, 504 h, dosage 20 g/ha, scored visually after 3 weeks vs untreated controls, 100% = plants have died, 0% = like control plants, read-out: Pre-emergence action against ABUTH (herbicidal activity in percent)): 80%; pest or weed control at 20 g/ha (VERPE; Veronica persica, 504 h, dosage 20 g/ha): 80%; pest or weed control at 80 g/ha (VERPE; Veronica persica, 504 h, dosage 80 g/ha): 90%; pest or weed control at 20 g/ha (AMARE [10]; Amaranthus retroflexus, 504 h): 90%
4 | CCCNC(=O)c1c(C(F)F)ccc(C(=O)Nc2nnc(C)o2)c1Cl [Example 6-259] | 80% | 100% | 100% | 100% | 80% | 100% | 80% | 90% | 90% | 90% | 100% | 100% | 90% | 100% | 100% | – | 80% | 100% | Post-emergence action against SETVI in % (SETVI [12]): 90%; Post-emergence action against DIGSA (DIGSA [13]): 90%; Post-emergence action against ABUTH in % (ABUTH [14]): 80%
